From PubChem BioAssay (NCI)
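Test compounds were applied to cells in 96-well plates for 48 hours at 5 doses. At the TGI there is no net growth.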

Columns and labels:
Experiment in all cases: growth of human tumour cells (NCI), 48 h
SK-MEL-5 melanoma = tested on: SK-MEL-5 melanoma
NCI-H522 lung = tested on: NCI-H522 lung
OVCAR-8 ovarian = tested on: OVCAR-8 ovarian
OVCAR-5 ovarian = tested on: OVCAR-5 ovarian
IGROV1 ovarian = tested on: IGROV1 ovarian
A549 NSCLC = tested on: A549 NSCLC
HOP-62 NSCLC = tested on: HOP-62 NSCLC
UACC-257 melanoma = tested on: UACC-257 melanoma
HCC-2998 colon = tested on: HCC-2998 colon

| Structure (SMILES) | TGI (SK-MEL-5 melanoma) | TGI (NCI-H522 lung) | TGI (OVCAR-8 ovarian) | TGI (OVCAR-5 ovarian) | TGI (IGROV1 ovarian) | TGI (A549 NSCLC) | TGI (HOP-62 NSCLC) | TGI (UACC-257 melanoma) | TGI (HCC-2998 colon) |
| --- | --- | --- | --- | --- | --- | --- | --- | --- | --- |
| Nc1ccc(Oc2ccc(C34CC5CC(C3)CC(c3ccc(Oc6ccc(N)c(O)c6)cc3)(C5)C4)cc2)cc1O | 4.37 µM | 3.33 µM | 4.86 µM | 4.3 µM | 3.04 µM | 3.24 µM | 12 µM | 4.72 µM | – |
| O=C(O)Cn1cnc2c(=O)[nH]c(Nc3ccccc3)nc21 | > 100 µM | > 100 µM | > 100 µM | > 100 µM | > 100 µM | > 100 µM | > 100 µM | > 100 µM | > 100 µM |
| CSCCC(NOC(=O)Cc1ccccc1)P(=O)(O)c1ccccc1 (stereo not drawn) | > 100 µM | > 100 µM | > 100 µM | > 100 µM | > 100 µM | > 100 µM | > 100 µM | > 100 µM | > 100 µM |
| Cc1cc2nc3c(C)c4ccccc4c(C)n3c2cc1C | > 10 µM | > 10 µM | > 10 µM | > 10 µM | > 10 µM | > 10 µM | > 10 µM | > 10 µM | > 10 µM |
| Nc1nc(Cl)cc(Oc2ccc(Cl)cc2)n1 | > 100 µM | > 72.8 µM | > 100 µM | > 100 µM | > 100 µM | > 100 µM | > 100 µM | > 100 µM | > 100 µM |
| C#CCn1c(=O)c2cc(OC)c(OC)cc2n(CC#C)c1=O | > 10 µM | > 10 µM | > 10 µM | > 10 µM | > 10 µM | > 10 µM | > 10 µM | > 10 µM | > 10 µM |
| COc1c(C(=O)CC2c3c(cc4oc(C)cc(=O)c4c3OC)OC(=N)C2c2nc3ccccc3[nH]2)c(O)c(OC)c2occc12 (stereo not drawn) | > 100 µM | > 100 µM | > 100 µM | > 100 µM | > 100 µM | > 100 µM | > 100 µM | > 100 µM | > 100 µM |
| COC(=O)[C@@]1(Cc2ccc(OC(C)=O)cc2)Cc2cc3ccccc3n2N1 | 37.1 µM | > 100 µM | > 100 µM | > 100 µM | > 100 µM | > 100 µM | > 100 µM | 52.1 µM | – |
| CCCC(CCC(=O)O)(CCC(=O)O)[N+](=O)[O-] | > 100 µM | > 100 µM | > 100 µM | > 100 µM | > 100 µM | > 100 µM | – | > 100 µM | – |
| Cc1[nH]c(-c2ccccc2)c(O)c1C(=O)OC1CC(C)CCC1C(C)C (stereo not drawn) | 30.2 µM | 26.6 µM | 29.9 µM | 27.2 µM | 29 µM | 26.2 µM | 28.6 µM | 29.5 µM | – |
| CCOC(=O)/C(C(N)=O)=C(/O)c1cnccn1 | > 100 µM | > 100 µM | > 100 µM | > 100 µM | > 100 µM | > 100 µM | – | > 100 µM | > 100 µM |
